Earlier results in patent US20230109626A1 (priority 2020, published 2023).

Conditions: for solubility in water: at 20° C.

## [H]/N=C(\N/C(=N/[H])NCCCCCCNC(=N)NC(=N)Nc1ccc(Cl)cc1)Nc1ccc(Cl)cc1 [Chlorhexidine]
Temperature not given
  solubility: about 80 mg/100 mL
  solubility in water: 80 mg/100 mL

## N=C(NCCCCCCNC(=N)NC(=N)Nc1ccc(Cl)cc1)NC(=N)Nc1ccc(Cl)cc1.O=C(O)[C@H](O)[C@@H](O)[C@H](O)[C@H](O)CO.O=C(O)[C@H](O)[C@@H](O)[C@H](O)[C@H](O)CO [chlorhexidine gluconate]
  solubility in water: ≥ 2100 mg/100 mL
